pIC50: −log10 of the molar value. Structures can show the parent of a compound that is named as a salt.
How the values were obtained:
ATM = ATM (Homo sapiens (Human), UniProt Q13315); assay: ATM in Cell Western Assay (pKAP1 in etoposide-treated MCF-7 cells); type: cell-based
Summary of the method: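 Cells received compounds in a 10-dose, 3-fold series from a 1 μM final top concentration, then 100 μM etoposide, for 1 hr at 37° C. They were then fixed with paraformaldehyde and permeabilized with 0.1% Triton X-100. After immunostaining, plates were scanned on an infrared imager.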

DNA-PK = DNA-PK (Homo sapiens (Human), UniProt P78527); assay: DNA-PK Enzyme-Linked Immunosorbent Assay (phosphorylation of GST-p53 (1-101) peptide); type: biochemical; conditions: ELISA
Summary of the method: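 ELISA with plate-bound GST-p53 (1-101) phosphorylated by DNA-PK (0.1 μg/mL final) with 20 μM ATP for 1 h at 25 °C. Compounds tested over 10 3-fold doses from 100 nM top final. Phospho-p53 Ser15 detected by antibody, HRP and TMB, absorbance at 450 nm.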

[1] = pKAP1 in etoposide-treated MCF-7 cells
[2] = MCF-7 cells, etoposide 100 μM, 1 hr, pKAP1 readout

Chain of ATM (Q13315 whole entry): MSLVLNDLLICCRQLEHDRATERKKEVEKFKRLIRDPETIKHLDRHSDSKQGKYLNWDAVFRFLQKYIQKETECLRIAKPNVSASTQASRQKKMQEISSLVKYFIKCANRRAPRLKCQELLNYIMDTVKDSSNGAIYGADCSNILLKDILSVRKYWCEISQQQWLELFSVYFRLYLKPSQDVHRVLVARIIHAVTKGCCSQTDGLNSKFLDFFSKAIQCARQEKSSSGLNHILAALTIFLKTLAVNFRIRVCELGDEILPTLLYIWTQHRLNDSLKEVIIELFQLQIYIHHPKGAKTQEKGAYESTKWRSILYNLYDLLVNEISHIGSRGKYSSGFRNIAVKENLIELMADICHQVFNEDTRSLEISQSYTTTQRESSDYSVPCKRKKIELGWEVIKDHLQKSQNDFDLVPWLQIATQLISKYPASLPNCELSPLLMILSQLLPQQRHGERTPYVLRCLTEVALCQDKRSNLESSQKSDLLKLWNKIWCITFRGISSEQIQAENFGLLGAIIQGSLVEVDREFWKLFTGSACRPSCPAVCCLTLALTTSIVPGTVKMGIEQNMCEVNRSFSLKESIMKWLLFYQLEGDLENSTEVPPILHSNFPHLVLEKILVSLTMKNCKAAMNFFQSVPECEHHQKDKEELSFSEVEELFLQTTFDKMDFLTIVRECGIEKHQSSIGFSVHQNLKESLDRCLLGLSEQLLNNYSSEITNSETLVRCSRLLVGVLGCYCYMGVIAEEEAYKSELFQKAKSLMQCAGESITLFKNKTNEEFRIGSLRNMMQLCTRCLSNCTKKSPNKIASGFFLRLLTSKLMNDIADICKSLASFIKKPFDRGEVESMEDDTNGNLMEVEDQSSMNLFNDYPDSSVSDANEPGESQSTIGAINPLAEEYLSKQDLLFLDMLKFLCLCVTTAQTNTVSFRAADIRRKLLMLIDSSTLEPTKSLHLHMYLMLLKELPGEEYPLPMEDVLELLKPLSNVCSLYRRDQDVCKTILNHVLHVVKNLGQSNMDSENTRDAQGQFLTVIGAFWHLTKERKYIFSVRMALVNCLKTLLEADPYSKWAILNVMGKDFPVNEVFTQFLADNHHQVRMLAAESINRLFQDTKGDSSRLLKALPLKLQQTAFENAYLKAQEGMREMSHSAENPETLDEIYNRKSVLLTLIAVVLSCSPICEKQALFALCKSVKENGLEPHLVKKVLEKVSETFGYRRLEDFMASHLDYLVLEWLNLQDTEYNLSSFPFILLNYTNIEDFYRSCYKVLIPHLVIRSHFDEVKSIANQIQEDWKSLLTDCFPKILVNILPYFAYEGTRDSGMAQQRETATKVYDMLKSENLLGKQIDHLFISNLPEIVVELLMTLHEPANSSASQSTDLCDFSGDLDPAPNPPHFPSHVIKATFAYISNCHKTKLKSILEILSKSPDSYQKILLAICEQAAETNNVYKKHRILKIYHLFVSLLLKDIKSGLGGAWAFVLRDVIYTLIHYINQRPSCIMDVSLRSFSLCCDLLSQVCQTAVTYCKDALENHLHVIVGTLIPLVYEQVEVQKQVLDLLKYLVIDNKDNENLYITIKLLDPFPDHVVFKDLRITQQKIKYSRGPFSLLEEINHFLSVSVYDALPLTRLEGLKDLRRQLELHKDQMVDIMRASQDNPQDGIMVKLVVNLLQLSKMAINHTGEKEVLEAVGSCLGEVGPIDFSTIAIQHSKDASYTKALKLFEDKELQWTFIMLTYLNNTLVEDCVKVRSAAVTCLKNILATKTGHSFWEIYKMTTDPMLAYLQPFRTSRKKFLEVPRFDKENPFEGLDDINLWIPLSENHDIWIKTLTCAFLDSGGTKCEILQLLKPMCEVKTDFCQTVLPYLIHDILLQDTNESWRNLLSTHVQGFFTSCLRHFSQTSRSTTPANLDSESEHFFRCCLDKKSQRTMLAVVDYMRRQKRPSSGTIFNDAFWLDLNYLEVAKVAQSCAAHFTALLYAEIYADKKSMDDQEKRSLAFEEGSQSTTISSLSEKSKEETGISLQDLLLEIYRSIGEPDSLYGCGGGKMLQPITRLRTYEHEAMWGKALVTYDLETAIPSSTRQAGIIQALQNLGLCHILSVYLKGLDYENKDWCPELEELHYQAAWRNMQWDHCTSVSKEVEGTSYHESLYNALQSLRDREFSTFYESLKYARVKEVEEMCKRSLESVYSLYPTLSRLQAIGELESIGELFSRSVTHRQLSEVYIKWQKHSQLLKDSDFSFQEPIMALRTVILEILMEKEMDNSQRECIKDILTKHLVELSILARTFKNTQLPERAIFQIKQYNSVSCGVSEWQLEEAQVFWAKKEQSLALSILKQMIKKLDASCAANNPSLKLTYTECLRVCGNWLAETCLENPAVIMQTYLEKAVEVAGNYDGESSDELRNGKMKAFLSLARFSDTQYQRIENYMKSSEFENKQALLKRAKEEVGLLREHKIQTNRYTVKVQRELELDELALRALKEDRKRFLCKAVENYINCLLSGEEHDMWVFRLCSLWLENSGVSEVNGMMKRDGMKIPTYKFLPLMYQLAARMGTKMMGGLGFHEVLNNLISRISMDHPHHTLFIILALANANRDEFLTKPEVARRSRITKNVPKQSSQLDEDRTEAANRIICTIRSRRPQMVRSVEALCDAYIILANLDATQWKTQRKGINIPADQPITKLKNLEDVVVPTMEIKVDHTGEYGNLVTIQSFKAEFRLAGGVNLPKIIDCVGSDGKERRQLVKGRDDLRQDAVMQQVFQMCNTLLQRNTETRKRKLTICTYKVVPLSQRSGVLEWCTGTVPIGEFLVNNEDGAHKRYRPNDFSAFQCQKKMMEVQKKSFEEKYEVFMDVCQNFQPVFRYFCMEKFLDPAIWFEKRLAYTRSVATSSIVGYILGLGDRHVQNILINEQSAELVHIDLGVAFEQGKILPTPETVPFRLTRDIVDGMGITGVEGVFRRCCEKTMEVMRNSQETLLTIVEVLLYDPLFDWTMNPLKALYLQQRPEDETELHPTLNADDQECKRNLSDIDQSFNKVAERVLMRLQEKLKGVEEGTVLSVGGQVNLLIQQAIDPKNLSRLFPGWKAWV

SMILES | pIC50 (ATM; [1]) | pIC50 (DNA-PK; 20 μM ATP) | pIC50 (ATM; [2]) | pIC50 (DNA-PK; ATP 20 μM)
CC(C)NCCOc1ncc(-c2cc3c(cc2F)ncc2c3[C@]3(C[C@@H](c4cccnc4)C3)C(=O)N2C)cc1NS(C)(=O)=O [Example 437, trans-N-{5-(7′-Fluoro-3′-methyl-2′-oxo-3-(pyridin-3-yl)-2′,3′-dihydrospiro[cyclobutane-1,1′-pyrrolo[2,3-c]quinolin]-8′-yl)-2-(2-(isopropylamino)ethoxy)pyridin-3-yl)methanesulfonamide] | < 7.00 | 7.00 to 9.00 |  | 
CO[C@H]1C[C@]2(C1)C(=O)N(C)c1cnc3cc(F)c(-c4cnc(OCCNC(C)C)c(NS(=O)(=O)N(C)C)c4)cc3c12 [Example 389, cis-8′-{5-[(Dimethylsulfamoyl)amino]-6-{2-[(propan-2-yl)amino]ethoxy}pyridine-3-yl}-7′-fluoro-3-Methoxy-3′-methyl-2′,3′-dihydrospiro[cyclobutane-1,1′-pyrrolo[2,3-c]quinoline]-2′-one] | 7.00 to 9.00 | 7.00 to 9.00 |  | 
CN1C(=O)C2(CCC2)c2c1cnc1ccc(-c3cnc(OCCNC(C)(C)C)c(NS(C)(=O)=O)c3)cc21 [Example 309] |  |  | 7.00 to 9.00 | 9.00 to 9.30
CCN(C)S(=O)(=O)Nc1cc(-c2ccc3ncc4c(c3c2)C2(CCC2)C(=O)N4C)cnc1OCCCN1CCCCC1 [Example 222, 8′-(5-{[Ethyl(methyl)sulfamoyl]amino}-6-[3-(piperidin-1-yl)propoxy]pyridin-3-yl)-3′-methyl-2′,3′-dihydrospiro [cyclobutane-1,1′-pyrrolo[2,3-c]quinoline]-2′-one] |  |  | 7.00 to 9.00 | 7.00 to 9.00
CN1C(=O)C2(CC2)c2c1cnc1ccc(-c3ccc4ncccc4c3)cc21 [Example 22, 3′-Methyl-8′-(quinolin-6-yl)spiro[cyclopropane-1,1′-pyrrolo[2,3-c]quinolin]-2′(3′-H)-one] |  |  | 7.00 to 9.00 | 7.00 to 9.00
CN(CCC#N)CCCOc1ncc(-c2ccc3ncc4c(c3c2)C2(CCC2)C(=O)N4C)cc1NS(C)(=O)=O [Example 293, N-(2-(3-((2-Cyanoethyl)(methyl)amino)propoxy)-5-(3′-methyl-2′-oxo-2′3′-dihydrospiro[cyclobutane-1,1′-pyrrolo[2,3-c]quinolin]-8′-yl)pyridin-3-yl)methanesulfonamide] |  |  | < 7.00 | < 7.00
Cc1ncc(S(=O)(=O)Nc2cc(-c3cc4c5c(cnc4cc3F)N(C)C(=O)C53CN(c4ccccc4)C3)cnc2OCCNC(C)C)s1 [Example 520, N-(5-(7′-Fluoro-3′-methyl-2′-oxo-1-phenyl-2′,3′-dihydrospiro[azetidine-3,1′-pyrrolo[2,3-c]quinolin]-8′-yl)-2-(2-(isopropylamino)ethoxy)pyridin-3-yl)-2-methylthiazole-5-sulfonamide] | 7.00 to 9.00 | 7.00 to 9.00 |  | 
CN1C(=O)C2(CC2)c2c1cnc1cc(F)c(-c3cnc(OCCCN4CCCCC4)c(NS(=O)(=O)c4ccccc4)c3)cc21 [Example 118, N-(5-(7′-Fluoro-3′-methyl-2′-oxo-2′,3′-dihydrospiro[cyclopropane-1,1′-pyrrolo[2,3-c]quinolin]-8′-yl)-2-(3-(piperidin-1-yl)propoxy)pyridin-3-yl)benzenesulfonamide hydrochloride] |  |  | 7.00 to 9.00 | 7.00 to 9.00
CN(C)CCCOc1ncc(-c2ccc3ncc4c(c3c2)C2(CCC2)C(=O)N4C)cc1NS(=O)(=O)N(C)C [Example 149, 8′-{6-[3-(Dimethylamino)propoxy]-5-[(dimethylsulfamoyl)amino]pyridine-3-yl}-3′-methyl-2′,3′-dihydrospiro[cyclobutane-1,1′-pyrrolo[2,3-c]quinoline]-2′-one hydrochloride] |  |  | > 9.30 | 9.00 to 9.30
CN(C)CCCOc1ncc(-c2ccc3ncc4c(c3c2)C2(CCC2)C(=O)N4C)cc1NS(=O)(=O)N1CCN(C)CC1 [Example 162, N-(2-(3-(Dimethylamino)propoxy)-5-(3′-methyl-2′-oxo-2′,3′-dihydrospiro[cyclobutane-1,1′-pyrrolo[2,3-c]quinolin]-8′-yl)pyridin-3-yl)-4-methylpiperazine-1-sulfonamide hydrochloride] |  |  | 7.00 to 9.00 | 9.00 to 9.30
CN(C)CCCOc1ncc(-c2ccc3ncc4c(c3c2)C2(CCC2)C(=O)N4C)cc1NS(=O)(=O)c1ccc(F)cc1 [Example 158, N-(2-(3-(Dimethylamino)propoxy)-5-(3′-methyl-2-oxo-2′,3′-dihydrospiro[cyclobulane-1,1′-pyrrolo[2,3-c]quinolin]-8′-yl)pyridin-3-yl)-4-fluorobenzenesulfonamide hydrochloride] |  |  | 9.00 to 9.30 | 9.00 to 9.30
CNCCOc1ncc(-c2ccc3ncc4c(c3c2)C2(CCC2)C(=O)N4C)cc1NS(C)(=O)=O [Example 249, N-(5-(3′-Methyl-2′-oxo-2′,3′-dihydrospiro[cyclobutane-1,1′-pyrrolo[2,3-c]quinolin]-8′-yl)-2-(2-(methylamino)ethoxy)pyridin-3-yl) methanesulfonamide] |  |  | 7.00 to 9.00 | > 9.30
CC(C)NCCOc1ncc(-c2cc3c4c(cnc3cc2F)N(C)C(=O)C42CN(C(C)C)C2)cc1NS(=O)(=O)C1CC1 [Example 484, N-(5-(7′-Fluoro-1-isopropyl-3′-methyl-2′-oxo-2′,3′-dihydrospiro[azetidine-3,1′-pyrrolo[2,3-c]quinolin]-8′-yl)-2-(2-(isopropylamino)ethoxy)pyridin-3-yl)cyclopropanesulfonamide] | 7.00 to 9.00 | 7.00 to 9.00 |  | 
CN1C(=O)C2(CC2)c2c1cnc1ccc(-c3cnc(OCCC4CCCCN4C)c(NS(=O)(=O)C4CC4)c3)cc21 (stereo not shown) [Example 80, N-(5-(3′-Methyl-2′-oxo-2′,3′-dihydrospiro [cyclopropane-1,1′-pyrrolo[2,3-c]quinolin]-8′-yl)-2-(2-(1-methylpiperidin-2-yl)ethoxy)pyridin-3-yl)cyclopropanesulfonamide] |  |  | 7.00 to 9.00 | 7.00 to 9.00
CN(C)CCCOc1ncc(-c2ccc3ncc4c(c3c2)C2(CCC2)C(=O)N4C)cc1NS(C)(=O)=O [Example 189, N-(2-(3-(Dimethylamino)propoxy)-5-(3′-methyl-2′-oxo-2′,3′-dihydrospiro [cyclobulane-1,1′-pyrrolo[2,3-c]quinolin]-8′-yl)pyridin-3-yl) methanesulfonamide] |  |  | 7.00 to 9.00 | > 9.30
CN(C)CCCOc1ncc(-c2ccc3ncc4c(c3c2)C2(CC2)C(=O)N4Cc2cn[nH]c2)cc1NS(=O)(=O)c1ccccc1 [Example 30, N-(5-(3′-((1H-Pyrazol-4-yl)methyl)-2′-oxo-2′,3′-dihydrospiro[cyclopropane-1,1′-pyrrolo[2,3-c]quinolin]-8′-yl)-2-(3-(dimethylamino)propoxy)pyridin-3-yl)benzenesulfonamide] |  |  | 7.00 to 9.00 | 7.00 to 9.00
CO[C@H]1C[C@@]2(C1)C(=O)N(C)c1cnc3cc(F)c(-c4cnc(OCCNC(C)C)c(NS(=O)(=O)N(C)C)c4)cc3c12 [Example 390] | 7.00 to 9.00 | 7.00 to 9.00 |  | 
CC1CN(S(=O)(=O)Nc2cc(-c3ccc4ncc5c(c4c3)C3(CCC3)C(=O)N5C)cnc2OCCCN(C)C)CC(C)O1 (stereo not shown) [Example 184, N-(2-(3-(Dimethylamino)propoxy)-5-(3′-methyl-2′-oxo-2′,3′-dihydrospiro[cyclobutane-1,1′-pyrrolo[2,3-c]quinolin]-8′-yl)pyridin-3-yl)-2,6-dimethylmorpholine-4-sulfonamide] |  |  | 7.00 to 9.00 | 7.00 to 9.00
CC(C)NCCOc1ncc(-c2cc3c(cc2F)ncc2c3[C@]3(C[C@H](Oc4ccccc4)C3)C(=O)N2C)cc1NS(=O)(=O)N(C)C [Example 402, cis-8′-{5-[(Dimethylsulfamoyl)amino]-6-{2-[(propan-2-ylamino]ethoxy}pyridine-3-yl}-7′-fluoro-3′-methyl-3-phenoxy-2′,3′-dihydrospiro[cyclobutane-1,1′-pyrrolo[2,3-c]quinoline]-2′-one hydrochloride] | 7.00 to 9.00 | 7.00 to 9.00 |  | 
CN(C)CCCOc1ncc(-c2ccc3ncc4c(c3c2)C2(CC2)C(=O)N4C)cc1NS(=O)(=O)c1ccc(Cl)cc1 [Example 128, 4-Chloro-N-(2-(3-(dimethylamino)propoxy)-5-(3′-methyl-2′-oxo-2′,3′-dihydrospiro[cyclopropane-1,1′-pyrrolo[2,3-c]quinolin]-8′-yl)pyridin-3-yl)benzenesulfonamide hydrochloride] |  |  | 7.00 to 9.00 | > 9.30
CN(C)CCCOc1ncc(-c2ccc3ncc4c(c3c2)C2(CCC2)C(=O)N4C)cc1NS(=O)(=O)C(F)F [Example 247, N-(2-(3-(Dimethylamino)propoxy)-5-(3′-methyl-2′-oxo-2′,3′-dihydrospiro [cyclobutane-1,1′-pyrrolo[2,3-c]quinolin]-8′-yl)pyridin-3-yl)-1,1′-difluoromethane-sulfonamide] |  |  | 7.00 to 9.00 | > 9.30
COc1cccc([C@H]2C[C@]3(C2)C(=O)N(C)c2cnc4cc(F)c(-c5cnc(OCCNC(C)C)c(NS(C)(=O)=O)c5)cc4c23)n1 [Example 428, cis-N-(5-(7′-Fluoro-3-(6-methoxypyridin-2-yl)-3′-methyl-2′-oxo-2′,3′-dihydrospiro[cyclobutane-1,1′-pyrrolo[2,3-c]quinolin]-8′-yl)-2-(2-(isopropylamino)ethoxy)pyridin-3-yl)methanesulfonamide] | 7.00 to 9.00 | 7.00 to 9.00 |  | 
CC(C)NCCOc1ncc(-c2cc3c(cc2F)ncc2c3[C@]3(C[C@H](C(C)(C)O)C3)C(=O)N2C)cc1NS(C)(=O)=O [Example 456, cis-N-(5-(7′-Fluoro-3-(2-hydroxypropan-2-yl)-3′-methyl-2′-oxo-2′,3′-dihydrospiro[cyclobutane-1,1′-pyrrolo[2,3-c]quinolin]-8′-yl)-2-(2-(isopropylamino)ethoxy)pyridin-3-yl)methanesulfonamide] | 7.00 to 9.00 | 7.00 to 9.00 |  | 

From patent publication US12187742B2 (XRAD Therapeutics, Inc., priority 2018, dated 2025)
